Where two headings read alike, the source gives them in different places.
Tests used:
[1] = system: L1210 leukemia cells (L1210/PDD); assay: In vitro cytotoxicity / cross-resistance, L1210/PDD (L1210/DDP) cells resistant to cisdiamminedichloroplatinum(II); assay type: cell-based; settings: for ID50 L1210/DDP: Tables VII and VIII, 5760 min; for ID50 L1210/PDD: 96 hours
Protocol: Four ml of cell suspension were added to culture tubes and the appropriate concentration (0.01, 0.1, 1 or 10 μg/ml final drug concentration) was added. After 96 hours the cell concentration of control and experimental cultures were calculated with the aid of a Coulter Counter® Model ZBf and the percent inhibition calculated.

L1210/0 leukemia cells = assay: In vivo anti-tumor activity, L1210 (L1210/0), multiple i.p. doses; design: species or system BDF1 mice; settings: for Maximal Effective Dose: i.p. on days 1, 5 and 9
Protocol: BDF1 mice were inoculated intraperitoneally with 10^6 L1210 cells. About 24 hours after inoculation of the cells, the mice were injected intraperitoneally with varying dosages of complexes of the present invention. Six mice were used for each dosage level in each experiment with an equal number of control mice inoculated with 10^6 L1210 cells and left untreated with a given complex. The results [%T/C=(survival time of treated animals/survival time of control animals)×100] are set forth below. Long term survival signifies that animals were alive 60 days after inoculation with L1210 cells.
The procedure of Example 16 was repeated except that the treated animals were injected with multiple doses of the complex as indicated below:
(§1) The anti-tumor activity of compound number 3 was evaluated against cells sensitive to (L1210/0) and resistant to (L1210/PDD) the standard platinum complex cis-diamminedichloroplatinum(II).
The following complexes were tested in vivo oncolytic activity following 3 i.p. injections (days 1, 5, 9) according to the protocol described in Examples 16 and 17.
BDF1 mice were innoculated intraperitoreally with 10^6 L1210 leukemia cells and treatment was begun on the next day (day 1). Two treatment schedules, i.e. single i.p. injection of the drug and i.p. injections on days 1, 5 and 9 according to the protocol described in Examples 16 and 17 were used.

L1210 cells = assay: In vivo anti-tumor activity, L1210, single i.p. injection; design: species or system BDF1 mice; settings: for Maximal Effective Dose: single i.p. injection
Protocol: About 24 hours after inoculation of the cells, the mice were injected intraperitoneally with varying dosages of complexes of the present invention. […] Long term survival signifies that animals were alive 60 days after inoculation with L1210 cells.

[2] = system: Wild type L1210 leukemic cells; assay: In vitro cytotoxicity, wild type L1210 leukemic cells (L1210/0); assay type: cell-based; settings: L1210, 72 hours incubation
Protocol: Four ml of cell suspension (10^5 cells/ml) are added to culture tubes and the appropriate concentration (0.01, 0.1, 1 or 10 μg/ml final concentration) of drug added to the culture tubes. After 72 hours of incubation, the cell concentration of control and experimental cultures are determined with the aid of a Coulter Counter® Model ZBf and the percent inhibition calculated. […]

L1210/PDD = assay type: in vivo, BDF1 mice; settings: days 1,5,9
Protocol: as §1

Male albino mice = assay: Acute toxicity, single intraperitoneal injection (Example 19); assay type: in vivo; settings: single i.p.; for Calculated LD10 / Calculated LD50 / Calculated LD90: 14 days
Protocol: Fourteen days after treatment all surviving mice were sacrified and the LD10, LD50 and LD90 were calculated.

[3] = Acute lethality, single intraperitoneal injection (Table XIII); assay type: in vivo
[4] = BUN (RUN [sic]) with the acute lethality data (Table XIII); assay type: in vivo; settings: mean + 1 S.D.
B16 cells = assay: Melanotic melanoma test, i.p. inoculated B16 melanoma; assay type: in vivo, BDF1 mice
Protocol: The animals used were BDF1 mice, all of the same sex, weighing a minimum of 18 g. and all within a 4 g. weight range. There were 6 animals per test group. […] The test compounds were administered intraperitoneally on days 1, 5 and 9 at various doses. The animals were weighed and survivors were recorded on a regular basis for 60 days. The median survival time and the ratio of survival time for treated (T)/control (C) animals were calculated. […] The criterion for efficacy is T/C×100≥125%.

[5] = Example 18, L1210/0, 25 mg/kg, days 1,5,9
[6] = Example 18, L1210/0, 50 mg/kg, days 1,5,9
[7] = Tables X and XI, days 1, 5 and 9, at maximal effective dose, alive 60 days after tumor inoculation
[8] = Tables X and XI, i.p. on days 1, 5 and 9, at maximal effective dose
[9] = Table IX, single i.p., at maximal effective dose

NC1CCCCC1N.O.O=C1OC(C(O)CO)C([O-])=C1O.O=C1OC(C(O)CO)C([O-])=C1O.[Pt+2] (stereo not drawn) [Compound 3, cis-bis-ascorbato(DACH)Pt(II).1H2 O]
ID50 L1210/DDP [1]: 5.0 µg/mL | ID50 L1210/PDD [1]: 2.6 µg/mL | % T/C (L1210/0 leukemia cells; 5 mg/kg, days 1-9): 142% | % T/C (L1210/0 leukemia cells; 10 mg/kg, days 1,5,9): 123% | % T/C (L1210/0 leukemia cells; 10 mg/kg, days 1-9): 184% | % T/C (L1210/0 leukemia cells; 20 mg/kg, days 1,5,9): 196% | Long Term Survivors (L1210/0 leukemia cells; 20 mg/kg, days 1,5,9): 1/6 | % T/C (L1210/0 leukemia cells; 20 mg/kg, days 1-9): 239% | Long Term Survivors (L1210/0 leukemia cells; 20 mg/kg, days 1-9): 1/6 | % T/C (L1210/0 leukemia cells; 25 mg/kg, days 1,5,9): 176% | % T/C (L1210/0 leukemia cells; 30 mg/kg, days 1,5,9): 257% | Long Term Survivors (L1210/0 leukemia cells; 30 mg/kg, days 1,5,9): 1/6 | % T/C (L1210/0 leukemia cells; 30 mg/kg, days 1,5,9,13): 273% | Long Term Survivors (L1210/0 leukemia cells; 30 mg/kg, days 1,5,9,13): 1/6 | % T/C (L1210/0 leukemia cells; Example 18, L1210/0, 6.25 mg/kg, days 1,5,9): 117% | % T/C (L1210/0 leukemia cells; Example 18, L1210/0, 12.5 mg/kg, days 1,5,9): 135% | % T/C (L1210/0 leukemia cells; [5]): 181% | SURVIVORS (L1210/0 leukemia cells; [5]): 2/10 | % T/C (L1210/0 leukemia cells; [6]): 247% | SURVIVORS (L1210/0 leukemia cells; [6]): 1/10 | % T/C (L1210/0 leukemia cells; Example 18, L1210/0, 100 mg/kg, days 1,5,9): 104% | % T/C (L1210 cells; single i.p., 50 mg/kg): 125% | % T/C (L1210 cells; single i.p., 60 mg/kg): 163% | % T/C (L1210 cells; single i.p., 75 mg/kg): 143% | % T/C (L1210 cells; single i.p., 90 mg/kg): 145% | % T/C (L1210 cells; single i.p., 100 mg/kg): Toxic | ID50 [2]: 5.0 µg/mL | % T/C (L1210/PDD; 6.25 mg/kg): 115% | % T/C (L1210/PDD; 12.5 mg/kg): 124% | % T/C (L1210/PDD; 25 mg/kg): 135% | % T/C (L1210/PDD; 50 mg/kg): 223% | SURVIVORS (L1210/PDD; 50 mg/kg): 3/10 | % T/C (L1210/PDD; 100 mg/kg): 172% | DEATHS/TREATED (Male albino mice; 110 mg/kg): 1/6 | DEATHS/TREATED (Male albino mice; 125 mg/kg): 2/6 | DEATHS/TREATED (Male albino mice; 140 mg/kg): 4/6 | DEATHS/TREATED (Male albino mice; 175 mg/kg): 6/6 | Calculated LD10 (Male albino mice): 108 mg/kg | Calculated LD50 (Male albino mice): 125 mg/kg | Calculated LD90 (Male albino mice): 150 mg/kg

O.O.O=C([O-])C[N-]CC(=O)O.[NH-]C1CCCCC1[NH-].[Pt] [Compound 11, iminodiacetato(DACH)Pt(II).2H2 O]
LD10 [3]: 53 mg/kg | LD50 [3]: 107 mg/kg | LD90 [3]: 169 mg/kg | ID50 L1210/PDD [1]: 1.6 µg/mL | RUN [4]: 23 ± 4 mg/100 ml | % T/C (L1210/0 leukemia cells; 25 mg/kg, days 1,5,9): 199% | % T/C (L1210/0 leukemia cells; 50 mg/kg, days 1,5,9): 220% | Long Term Survivors (L1210/0 leukemia cells; 50 mg/kg, days 1,5,9): 2/6 | Long Term Survivors (L1210/0 leukemia cells; [7]): 2/6 | Maximal Effective Dose (L1210/0 leukemia cells; Tables X and XI): 50 mg/kg | % T/C (L1210/0 leukemia cells; [8]): 220% | Maximal Effective Dose (L1210 cells; Table IX): 50 mg/kg | % T/C (L1210 cells; [9]): 163% | % T/C (L1210 cells; single i.p., 50 mg/kg): 163% | % T/C (L1210 cells; single i.p., 100 mg/kg): 109% | toxicity remark (L1210 cells; single i.p., 100 mg/kg): Apparent Toxicity | ID50 [2]: 4.2 µg/mL | DEATHS/TREATED (Male albino mice; 85 mg/kg): 1/6 | DEATHS/TREATED (Male albino mice; 100 mg/kg): 3/6 | DEATHS/TREATED (Male albino mice; 125 mg/kg): 5/6 | DEATHS/TREATED (Male albino mice; 158 mg/kg): 4/6 | DEATHS/TREATED (Male albino mice; 200 mg/kg): 6/6 | Calculated LD10 (Male albino mice): 80 mg/kg | Calculated LD50 (Male albino mice): 115 mg/kg | Calculated LD90 (Male albino mice): 155 mg/kg

CN(CC(=O)[O-])CC(=O)[O-].NC1CCCCC1N.O.[Pt+2] [Compound 28, N--Methyliminodiacetato(DACH)Pt(II).1H2 O]
LD10 [3]: 49 mg/kg | LD50 [3]: 92 mg/kg | LD90 [3]: 170 mg/kg | ID50 L1210/DDP [1]: 1.3 µg/mL | RUN [4]: 22 ± 3 mg/100 ml | Long Term Survivors (L1210/0 leukemia cells; [7]): 5/6 | Maximal Effective Dose (L1210/0 leukemia cells; Tables X and XI): 12.5 mg/kg | % T/C (L1210/0 leukemia cells; [8]): 550% | Maximal Effective Dose (L1210 cells; Table IX): 25 mg/kg | % T/C (L1210 cells; [9]): 180% | % T/C (L1210 cells; single i.p., 12.5 mg/kg): 161% | % T/C (L1210 cells; single i.p., 25 mg/kg): 185% | % T/C (L1210 cells; single i.p., 50 mg/kg): Toxic | ID50 [2]: 1.6 µg/mL | Maximal Effective Dose (B16 cells; B16, i.p. days 1, 5 and 9): 25 mg/kg | % T/C (B16 cells; B16, i.p. days 1, 5 and 9, at maximal effective dose): 205% | Long Term Survivors (B16 cells; B16, i.p. days 1, 5 and 9, at maximal effective dose, 60 days): 0/6

From US4661516A, “Diaminocyclohexane platinum complexes” (Research Corporation, priority 1984, dated 1987)
